Source: the supplement of paper PMC5844555

Key:
Assay in all cases: 3' UTR reporter interaction score (median-centred robust z-score of log2 firefly/Renilla activity); higher = less repression of the 3' UTR reporter
Conditions in all cases: HEK293T; 48 h
RB1 = tested on: RB1
Procedure, shortened: (§1)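 For the interaction score, the firefly/Renilla ratio was log-transformed, expressed as a robust z-score per plate using median and median absolute deviation, and median-centred per miRNA; a more negative score indicates interaction. These scores come from at least two independent screens, averaged. Each screen used HEK293T cells at 10,000/well in 96-well plates, co-transfected with DharmaFECT Duo carrying 100 ng luc2P 3' UTR reporter, 20 ng pRL-TK and 2.5 pmol miRNA mimic, with luciferase read at 48 h.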

HRAS = tested on: HRAS
Procedure, shortened: as §1

PHOX2B = tested on: PHOX2B
Procedure, shortened: as §1

TP53 = tested on: TP53
Procedure, shortened: as §1

MYT1L = tested on: MYT1L
Procedure, shortened: as §1

MYB = tested on: MYB
Procedure, shortened: as §1

PHF6 = tested on: PHF6
Procedure, shortened: as §1

MYCN = tested on: MYCN
Procedure, shortened: as §1

NOTCH1 = tested on: NOTCH1
Procedure, shortened: as §1

EZH2 = tested on: EZH2
Procedure, shortened: as §1

MYC = tested on: MYC
Procedure, shortened: as §1

FBXW7 = tested on: FBXW7
Procedure, shortened: as §1

ZEB2 = tested on: ZEB2
Procedure, shortened: as §1

BRCA2 = tested on: BRCA2
Procedure, shortened: as §1

| Sequence | 3' UTR reporter interaction score (RB1) | 3' UTR reporter interaction score (HRAS) | 3' UTR reporter interaction score (PHOX2B) | 3' UTR reporter interaction score (TP53) | 3' UTR reporter interaction score (MYT1L) | 3' UTR reporter interaction score (MYB) | 3' UTR reporter interaction score (PHF6) | 3' UTR reporter interaction score (MYCN) | 3' UTR reporter interaction score (NOTCH1) | 3' UTR reporter interaction score (EZH2) | 3' UTR reporter interaction score (MYC) | 3' UTR reporter interaction score (FBXW7) | 3' UTR reporter interaction score (ZEB2) | 3' UTR reporter interaction score (BRCA2) |
| --- | --- | --- | --- | --- | --- | --- | --- | --- | --- | --- | --- | --- | --- | --- |
| CACUCAGCCUUGAGGGCACUUUC | 0.059 | -0.0814 | 0.0189 | 0.0719 | -1.55 | 1.11 | -4 | 1.12 | 0.801 | 0.269 | -1.6 | -1.64 | 0.556 | 0.623 |
| AUUCAUUUGGUAUAAACCGCGAU | 0.747 | 0.347 | -0.197 | -1.06 | -0.154 | -0.684 | 0.306 | 0.523 | 0.53 | -0.0582 | 0.404 | -1.6 | 0.368 | -0.573 |
| UGCUUCCUUUCAGAGGGU | -0.583 | -0.697 | -0.331 | -1.13 | 0.521 | 1.13 | -0.232 | 0.0627 | 0.215 | 0.85 | 0.327 | 0.46 | -0.357 | -0.366 |
| GUCCAGUUUUCCCAGGAAUCCCUU | -0.0539 | -1.3 | -0.361 | -0.611 | 0.164 | 0.98 | 0.802 | -0.357 | 0.816 | 0.32 | -0.0253 | -0.33 | -0.186 | 0.301 |
| UCAGUGCAUCACAGAACUUUGU | 1.28 | -0.998 | -0.909 | -0.15 | 1.61 | -1.04 | 0.428 | 0.974 | 0.0134 | -0.211 | 0.216 | 0.15 | 1.9 | -1.11 |
| AAGGAGCUCACAGUCUAUUGAG | 0.838 | 0.291 | 0.65 | -1.32 | 0.551 | 1.45 | -0.478 | 1.38 | -1.13 | -0.897 | -0.238 | 0.924 | 1.75 | -1.14 |
| UAAUACUGCCGGGUAAUGAUGG | 0.254 | -0.939 | -0.44 | 0.205 | 1.25 | -1.24 | 0.321 | -0.263 | -0.992 | 0.453 | 0.778 | -0.707 | -2.81 | -0.155 |
| UCAGUGCACUACAGAACUUUGU | 1.18 | -0.763 | -0.0276 | -0.523 | 1.34 | -1.33 | 0.792 | 0.963 | 0.169 | -0.364 | 0.0974 | 0.473 | 1.75 | -1.23 |
| ACUCCAUUUGUUUUGAUGAUGGA | -0.0878 | -0.269 | 0.953 | 0.239 | -0.15 | -0.2 | 0.594 | 0.165 | -0.518 | -0.0207 | -0.0596 | -0.453 | 0.912 | -0.329 |
| AUCAACAGACAUUAAUUGGGCGC | 1.49 | 1.56 | -0.111 | -1.55 | -0.0651 | 0.0314 | -1.06 | -0.34 | -1.2 | 1.19 | -1.29 | 1.67 | 1.91 | 1.26 |
| AUGACCUAUGAAUUGACAGAC | -3 | 0.425 | -1.53 | 0.0613 | 0.231 | 1.61 | -2.93 | 1.35 | -0.0227 | 0.321 | 1.39 | -0.658 | -6.08 | -0.0675 |
| UUGCAUAUGUAGGAUGUCCCAU | -0.812 | 0.995 | -1.16 | 0.961 | -1.22 | -1.75 | -1.76 | -0.178 | 0.153 | 0.731 | 0.476 | 1.23 | -4.28 | 0.216 |
| CUUUUUGCGGUCUGGGCUUGC | -0.184 | 0.493 | -0.0143 | -0.0822 | 1.18 | 0.803 | -1.29 | 0.522 | -0.155 | 0.547 | 0.829 | -2.11 | -2.61 | -0.285 |
| CUUCUUGUGCUCUAGGAUUGU | 0.605 | 0.138 | -1.49 | -0.0486 | -0.427 | 0.218 | -0.418 | 0.82 | -0.719 | 0.0594 | 0.759 | -1.11 | 0.0232 | -1.63 |
| UGAGGUAGUAGGUUGUGUGGUU | 1.01e-16 | 0.13 | 0.11 | 0.495 | 0.566 | 0.859 | 0.852 | -4.48 | -0.305 | -3.63 | -4.84 | 0.642 | -1.14 | 1.21 |
| UCUCCCAACCCUUGUACCAGUG | -0.714 | 0.137 | -0.32 | -0.706 | 0.779 | -6.53 | 0.168 | 0.5 | -0.369 | 0.195 | 0.62 | -1.26 | 0.808 | 0.0345 |
| GGAGAAAUUAUCCUUGGUGUGU | 0.166 | -0.545 | 1.16 | 0.00656 | 0.261 | -0.159 | 0.937 | -0.523 | 0.146 | -0.15 | -1.2 | 0.978 | -0.311 | -0.364 |
